Test results: article PMC13534789, “Molecular Glue Degraders Enhance CAPRIN1‐Dependent Lysosomal Degradation of APP and Reduce Amyloid β in Alzheimer's Disease” (Advanced Science, 2026)
In brackets after ≈: the same amount, converted by molar mass.

Experiments:
Kinetic solubility assay = format: physicochemical; settings: for solubility at 24 h: aqueous buffer, kinetic from dmso stock, phosphate buffer pH 7.4, 24 h, room temperature, LC-MS, read-out: Solubility PBS
Description: 10 µL of 10 mM DMSO stock solution of test and control compounds was added to 990 µL phosphate buffer with pH 7.4. […] Samples were centrifuged, and the supernatant was transferred into a filter plate. Then, the filtrates were quantified by an LC‐MS system to get solubility results.

LN229 and HCT116 cells = test: Cancer cell viability; format: cell-based, human
SUMO1 = SUMO1 protein levels (western / dot blot); format: cell-based, human
rhCAPRIN1 and rhAPP = test: ThermoFluor assay with recombinant proteins; format: binding, human; settings: proteins 5 µM
Description: For the Thermofluor assay, Huynh's protocol was used with minor modifications. In brief, all proteins were used at a final concentration of 5 µM for this assay, and GloMelt Thermal Shift Protein Stability Kit (Biotium) was used at a final concentration of 0.5X. All experiments were carried out with QuantStudio 6 Flex (Applied Biosystems). SYBR was used as a reporter, and ROX was used as a passive reference according to the manufacturer's directions. Melting curve data were exported, followed by analysis with Boltzmann's sigmoidal curve in GraphPad Prism.

[1] = system: APP trafficking through the endosomal‐lysosomal pathway; test: Confocal colocalization of APP / CAPRIN1 with organelle markers; format: cell-based, human; settings: for APP–LAMP1 colocalization: AD iPSC-Ns
Description: Cells were grown on glass cover slips coated with 1% Matrigel and treated with drugs. Cells were washed, fixed, permeabilized, blocked, and incubated in primary antibodies diluted in blocking solution (1% v/v BSA solution/5% Goat serum in PBS containing 0.1% Triton X‐100) overnight at 4°C. The cells were washed three times with PBS and incubated in secondary antibodies in a blocking solution for 1 h at room temperature, then washed with PBS, followed by HOECHST staining (Invitrogen) for 5 min, and washed with PBS. The glass coverslips were put on a slide‐in mounting medium ([…]), and the edges were sealed with coverslip sealant (BIOTIUM). Image data were captured and processed with a confocal microscope system (Olympus Fluoview FV1000 or Leica DIVE) and the ImageJ program. For 3D organoids staining, organoids were fixed in 10% formalin overnight at room temperature, followed by incubation in 30% sucrose solution overnight at room temperature, embedded in optimal cutting temperature compound (OCT, FisherScientific), and kept at ‐80°C overnight. Frozen samples were sectioned at 10 µm using a cryostat (Leica) and mounted on microscope slides (Fisherbrand superfrost plus, FisherScientific). Before immunolabeling, sections were rinsed in PBS for 5 min, permeabilized for 30 min in PBS containing 0.3% Triton‐X 100, blocked for 1 h in PBS containing 5% BSA and 0.1% Triton‐X 100, and incubated with primary antibodies diluted in the same blocking solution. Then, secondary staining, mounting, and imaging were followed.
ImageJ (Fiji) program (NIH, Bethesda, MD, USA) was used o analyze images. Pearson's correlation coefficients were calculated with the JACoP plugin from two channels (BIOP). For colocalization/trafficking analysis with organelles in iPSC‐Ns, HEK293 cells, and 3D organoids, APP or CAPRIN1 with organelles signals were segmented using a trainable weka segmentation plugin in Fiji as previously described. Colocalized areas were calculated in the image calculator tool ([…] function) to get an overlayed area for the segmented signals, followed by using the analyze particle tool in Fiji to determine by > 1‐pixel overlapping of the segmented signal. To determine the fluorescence intensity, the corrected total cell fluorescence (CTCF) was used using the formula: CTCF = Integrated Density—(Area of selected cell x Mean fluorescence of background readings), as described previously. Bright‐field images of immunoperoxidase‐stained and Thioflavin S‐stained brain sections were exported as 16‐bit RGB TIFF files and analyzed using ImageJ (Fiji), following previously established protocols. To isolate the DAB signal for quantification, color deconvolution was performed using the “H DAB” setting in the Color Deconvolution plugin in ImageJ. The resulting “Colour_2” image, corresponding to the DAB chromogen, was converted to 8‐bit grayscale for further analysis. Manual thresholding was applied to the DAB channel using the threshold adjustment tool in ImageJ. […] Regions of interest (ROIs), specifically the subiculum, hippocampus, and cortex, were manually delineated based on anatomical landmarks and saved using the ROI Manager. For each ROI, the DAB‐positive area was quantified using the Analyze Particles plugin with default particle size settings. The percentage of DAB‐positive area was calculated as the ratio of the DAB‐positive area to the total area of each ROI.

APP = APP (Homo sapiens, UniProt P05067); test: Western blot of APP in HEK-APP695WT cells; format: cell-based; design: expressed in transfected cells; settings: 72 h
[2] = Brain/plasma ratio in mice; format: in vivo, male C57BL/6 mice; settings: male, C57BL/6, brain, 10 mg/kg; mouse, PO, 10 mpk; read-out: B/P-Kp (brain-to-plasma partition coefficient)
Description: Brain/Plasma Ratio test was processed by Sai Life Sciences Pvt. Ltd. Briefly, twelve male C57BL/6 mice were administered orally with solution formulation of 0152 at 10 mg/kg dose. Blood samples (approximately 60 µL) were collected under light isoflurane anesthesia from a set of three mice at 0.25, 0.5, 1, and 2 h. The blood samples were collected at each time point in labelled micro centrifuge tube containing K2EDTA as anticoagulant. Plasma was harvested by centrifugation of blood and stored at ‐70±10°C until analysis. Immediately after collecting blood, animals were anesthetized, perfused using 10 mL phosphate buffer saline, and brain samples were collected from each mouse at respective time points. Brain samples were homogenized using ice‐cold phosphate buffer saline (pH 7.4), and homogenates were stored below ‐70±10°C until analysis. Total homogenate volume was three times the brain weight. The plasma and brain concentration‐time data of 0152 were used for calculation. Plasma and brain samples were quantified by fit‐for‐purpose LC‐MS/MS method.

[3] = Tolerability and body weight in 5xFAD mice; format: in vivo
Text: Female 5xFAD transgenic mice (9–10 weeks old) were used to evaluate the efficacy of 0152 in reducing amyloid pathology. Mice were housed under Indiana University standard laboratory conditions. For intraperitoneal (IP) administration, mice received either vehicle or 0152 (indicated concentrations) in a formulation consisting of 20% DMSO, 20% Cremophor EL, and 60% PBS. For oral (PO) administration, mice received either vehicle or 0152 (indicated concentrations) in a formulation consisting of 10% NMP (N‐methyl‐2‐pyrrolidone), 10% PG (Propylene Glycol), 5% Solutol HS‐15, and 75% Captisol (10% w/v in RO water). At the end of the treatment period, mice were sacrificed, and their brains were collected for histological analysis. Brain tissues were fixed in 10% Formalin, embedded in paraffin, and sectioned. Thioflavin S staining was performed to visualize β‐sheet‐rich amyloid plaques, and immunohistochemistry was conducted using the 6E10 monoclonal antibody to detect Aβ plagues. Body weights were recorded daily throughout the study.

Sequence of APP (P05067 18-695 isoform P05067-4 limits assumed): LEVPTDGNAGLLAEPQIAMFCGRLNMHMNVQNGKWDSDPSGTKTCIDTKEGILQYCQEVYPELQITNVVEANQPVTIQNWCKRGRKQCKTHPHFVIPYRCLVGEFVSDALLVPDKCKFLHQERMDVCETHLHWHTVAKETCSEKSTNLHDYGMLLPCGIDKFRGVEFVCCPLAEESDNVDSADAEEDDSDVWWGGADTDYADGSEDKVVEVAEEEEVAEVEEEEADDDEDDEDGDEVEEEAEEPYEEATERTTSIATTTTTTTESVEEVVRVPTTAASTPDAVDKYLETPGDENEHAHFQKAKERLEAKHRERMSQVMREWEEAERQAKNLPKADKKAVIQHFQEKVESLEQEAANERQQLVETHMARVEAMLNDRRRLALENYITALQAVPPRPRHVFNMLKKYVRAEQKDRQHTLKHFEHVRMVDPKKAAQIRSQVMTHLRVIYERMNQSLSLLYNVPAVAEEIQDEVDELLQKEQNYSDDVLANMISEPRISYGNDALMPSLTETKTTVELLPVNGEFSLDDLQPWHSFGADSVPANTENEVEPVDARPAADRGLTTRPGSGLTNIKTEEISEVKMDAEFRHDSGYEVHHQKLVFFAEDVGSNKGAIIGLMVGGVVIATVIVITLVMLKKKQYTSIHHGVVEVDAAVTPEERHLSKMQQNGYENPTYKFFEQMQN

SMILES | Aqueous solubility by LC-MS, in words (Kinetic solubility assay) | solubility at 24 h (Kinetic solubility assay) | Cancer cell growth (LN229 and HCT116 cells) | SUMO1 protein levels in cancer cells (SUMO1; HCT116 and LN229 cells) | Thermal shift of recombinant CAPRIN1 and APP (rhCAPRIN1 and rhAPP) | APP–LAMP1 colocalization ([1]; 10 µM, 24 h) | APP colocalization with EEA1, Rab7 and LAMP1 ([1]; AG27606-Ns, 10 µM, 0, 3 or 7 h) | CAPRIN1 colocalization with Rab7 and LAMP1 ([1]; AG27606-Ns, 10 µM, 0, 3 or 7 h) | Intracellular APP (western blot) (APP; HEK-APP695WT cells, increasing concentrations) | Effects on APP and Aβ42 in CAPRIN1 KO cells (APP; sgCAPRIN1 HEK-APP695WT cells, 10 µM) | Kp [2] | Tolerability, body weight ([3]; 80 mg/kg IP twice per day, 30 days) | Body weight ([3]; 80 mg/kg oral gavage twice daily, 30 days) | Tolerability (lethargy, ataxia, paralysis, seizures, weight loss) ([3]; 100 mg/kg IP daily, 24 days) | SUMO1 levels in neuronal cells (SUMO1; AG27606-derived neurons, 10 µM, 3 days) | Colocalization of APP and CAPRIN1 with GGA1 ([1]; AG27606 neurons, 10 µM, 24 h) | Colocalization of APP and CAPRIN1 with SorLA ([1]; AG27606 neurons, 10 µM, 24 h)
N#Cc1cccc(NC(=O)Nc2nc3ccc(C(=O)N4CCOCC4)cc3s2)c1 [compound 0043] | poor aqueous solubility | 0.06 µg/mL (≈ 0.147 µM) | no effects | no effects | thermal shifts for both proteins | increased APP–LAMP1 colocalization | significantly increased APP colocalization with all three markers | increase its colocalization with both markers | reduced intracellular APP | abolished | – | – | – | – | – | – | –
COc1cccc(NC(=O)Nc2nc3ccc(C(=O)N4CCOCC4)cc3s2)c1 [compound 0152] | significantly improved aqueous solubility | 0.4 µg/mL (≈ 0.97 µM) | – | – | – | increased APP–LAMP1 colocalization | – | – | – | – | 0.03 | well tolerated with no weight loss | no observed weight loss | tolerated treatment well | no appreciable change | enhanced the colocalization of both APP and CAPRIN1 with GGA1 | reduced the colocalization of both APP and CAPRIN1 with SorLA
